Source: article PMC9923724, “Half sandwich-type osmium, ruthenium, iridium and rhodium complexes with bidentate glycosyl heterocyclic ligands induce cytostasis in platinum-resistant ovarian cancer cells and bacteriostasis in Gram-positive multiresistant bacteria” (Frontiers in Chemistry, 2023)
pIC50: −log10 of the molar value. Values joined by “and” are separate entries in the source; they are usually repeats but may differ in a detail not shown here. Equal values may be shown once.

Columns and labels:
[1] = test system: A2780 ovarian cancer cells; assay: SRB assay (cytostasis, 48 h) on A2780 cells; assay type: cell-based; settings: 48 h treatment
Method: (§1) First, we assessed a set of osmium complexes (similar to Ia [[Kacsir et al., 2022]) in Figure 1] and their sugar-derived ligands, in which the benzoyl protective groups on the carbohydrate moiety were replaced by aliphatic acyl groups of different chain length (straight chain C3-C7–CO). Osmium was selected as a central ion, since osmium complexes had the best biological activity in our previous studies ([Balázs et al., 2022]; [Kacsir et al., 2022]). These compounds were tested on A2780 ovarian cancer cells for toxicity and cytostasis. The therapy of ovarian cancer is centered around platinum compounds ([Brown et al., 2019]; [Sipos et al., 2021]), therefore, it was logical to use a cellular model of ovarian cancer for the initial testing of the compounds. Toxicity was assessed using the MTT assay that measures the activity of mitochondrial complex I. We chose 4 h long treatment as in an MTT assay this time point is suitable to detect rapid, direct toxicity. Cytostasis was assessed after 48 h of treatment using the SRB assay that assesses protein content that corresponds to cell count. The characteristics of the compounds are detailed in Table 2.
(§2) 3 × 10^3 A2780 cells, were plated to 96 well plates. Cells were treated with the compounds in the concentrations indicated for either 4 h for an MTT assay or for 48 h for an SRB assay. Data is represented as average ± SD, from three biological replicates; individual assays were performed in duplicates. Values were normalized for vehicle treated cells, absorbance for vehicle treated cells equals to 1. […] Except for the Os-6 complex, Two-way ANOVA test was performed and all values were compared with each other (Tukey’s post hoc test). […] Non-linear regression was performed on the data.
(§3) 3 × 10^3 A2780 cells, 2 × 10^3 ID8 cells and 4 × 10^3 primary fibroblasts were plated to 96 well plates. Cells were treated with the compounds in the concentrations indicated for either 4 h for an MTT assay or for 48 h for an SRB assay. Data is represented as average ± SD, from three biological replicates; individual assays were performed in duplicates. Values were normalized for vehicle treated cells, absorbance for vehicle treated cells equals to 1. Statistical significance was assessed using two-way ANOVA test comparing the free ligand and each complex as a complex-ligand pair. Before the test normality was assessed using the D’Agostino-Pearson test. The ID8 SRB Ir-7+L-7 dataset had lognormal distribution. […] All other datasets had normal distribution. For better visibility the p values are presented in an excel sheet at https://figshare.com/s/2c942a812caea8869a67. Non-linear regression was performed on the A2780 SRB and the ID8 SRB datasets.
The assay was performed similar to ([Kovács et al., 2019]). Cells were seeded in 96 well plates the day before the assay. Cells were treated with the compounds for 48 h. Cells were fixed with 10% trichloroacetic acid (TCA). Fixed cells were washed in distilled water 3 times followed by staining with SRB (0.4 m/V% dissolved in 1% acetic acid) for 10 min. Stained cells were washed in 1% acetic acid 5 times; acetic acid was removed and cells were left to dry. Protein-bound SRB was released by adding 100 µl 10 mM Tris base. Plates were measured in a plate photometer (Thermo Scientific Multiscan GO spectrophotometer, Waltham, MA, United States) at 540 nm. On each plate wells were designed to contain vehicle-treated cells. In calculations the readings for these wells was considered as 1 and all readings were expressed relative to these values.
Statistical analysis was performed using 8.0.1 version of Graphpad Prism. Values were tested for normal distribution using the D’Agostino and Pearson normality test. When necessary, values were log normalized or were normalized using the Box-Cox normalization method ([Box and Cox, 1964]) as indicated in the figure captions. […]

[2] = test system: A2780 ovarian cancer cells; assay: MTT reduction assay (rapid toxicity, 4 h) on A2780 cells; assay type: cell-based; settings: 4 h treatment
Method: as §1, §2, §3
MTT reduction assay measures the activity of mitochondrial complex I and can be used to detect toxicity ([Virág et al., 1998]; [Henslee et al., 2016]). The assay was performed similar to ([Bakondi et al., 2003]). Briefly, cells were plated in 96 well plates the day before the assay. Cells were treated with the compounds for 4 h, then MTT was added in 0.5 mg/ml final concentration and cells were incubated at 37°C in a cell incubator. Culture media was removed and the reduced MTT dye was dissolved in dimethyl-sulfoxide (DMSO) and plates were measured in a plate photometer (Thermo Scientific Multiscan GO spectrophotometer, Waltham, MA, United States) at 540 nm. On each plate wells were designed to contain untreated/vehicle-treated cells. In calculations the readings for these wells was considered as 1 and all readings were expressed relative to these values.

[3] = test system: Enterococcus faecalis (ATCC29212); assay: Broth microdilution MIC, Enterococcus faecalis reference strain; assay type: cell-based; settings: for MIC, Reference E. faecalis: Enterococcus faecalis ATCC29212, 24 h
Method: (§4) The MIC values of the complexes were determined against the reference strains of S. aureus (ATCC29213) and E. faecalis. (ATCC29212) and against clinical VRE and MRSA isolates by microdilution assays (repeated at least twice in duplicates) as described in Materials and Methods. The numbers indicate how many isolates were susceptible to the compound out of those tested; i.e., 1/6 stands for 1 isolate was susceptible out of 6 tested. […] Cells were harvested and lysed. Cellular proteins was separated on a 10% SDS-PAGE gel and were blotted. Blots were probed with 4HNE antibody (top blot), the lower blot was stained with amido black. Arrows point at band of interest. Experiments were repeated three times and a representative blot is shown. On the blots brightness and contrast were adjusted. […] Each was matched to a substance and strain by its position over the x-axis categories. / Ir-7: ND and 0/3 (left plot) and ND and 0/6 (right plot) were matched to E. faecalis/VRE and S. aureus/MRSA by position only.
(§5) We used the reference strains of Staphylococcus aureus (ATCC29213), and Enterococcus faecalis (ATCC29212) that were purchased from ATCC (Manassas, VA, United States).
(§6) Microdilution experiments were performed according to the standards of EUCAST ([EUCAST, 2021]). […] The inoculated plates were incubated for 24 h at 37°C then were assessed visually. […] All experiments were performed at least twice in duplicates.

[4] = test system: vancomycin-resistant Enterococcus (VRE) clinical isolates; assay: Broth microdilution MIC, clinical VRE isolates; assay type: cell-based, E. faecium; settings: for VRE isolates susceptible out of those tested: 3 isolates tested, susceptible = MIC up to 40 µM; for MIC, VRE 25 051: clinical isolate 25 051, nephrostoma; for MIC, VRE 25 051 / MIC, VRE 25 498 / MIC, VRE 27 085: 2018; for MIC, VRE 25 498: clinical isolate 25 498, rectal swab; for MIC, VRE 27 085: clinical isolate 27 085, wound
Method: as §4
(§7) We used a set of clinical isloates of S. aureus and E. faecium that were collected at the Medical Center of the University of Debrecen (Hungary) between 01. 01. 2018.—31. 12. 2020. The clinical isolates were identified using a Microflex MALDI-TOF mass spectrometer (Bruker, Billerica, MA, United States). Antibiotic susceptibility of the isolates was tested following the European Committee on Antimicrobial Susceptibility Testing ([EUCAST, 2021]) guidelines valid at the time of collection.
as §6

[5] = Determination of the distribution coefficients (logD); assay type: physicochemical; settings: distribution coefficient
[6] = test system: methicillin-resistant Staphylococcus aureus (MRSA) clinical isolates; assay: Broth microdilution MIC, clinical MRSA isolates; assay type: cell-based; settings: for MRSA isolates susceptible out of those tested: 6 isolates tested, susceptible = MIC up to 40 µM; for MIC, MRSA 20 426: clinical isolate 20 426, blood, 2020; for MIC, MRSA 24 035: clinical isolate 24 035, wound; for MIC, MRSA 24 035 / MIC, MRSA 24 268 / MIC, MRSA 24 272 / MIC, MRSA 24 328 / MIC, MRSA 24 408: 2018; for MIC, MRSA 24 268: clinical isolate 24 268, throat; for MIC, MRSA 24 272: clinical isolate 24 272, throat; for MIC, MRSA 24 328: clinical isolate 24 328, throat; for MIC, MRSA 24 408: clinical isolate 24 408, bronchial
Method: as §4, §7, §6

[7] = test system: Staphylococcus aureus (ATCC29213); assay: Broth microdilution MIC, Staphylococcus aureus reference strain; assay type: cell-based; settings: for MIC, Reference S. aureus: Staphylococcus aureus ATCC29213, 24 h
Method: as §4, §5, §6

CCCC(=O)OC[C@H]1O[C@@H](n2cc(-c3ccccn3)nn2)[C@H](OC(=O)CCC)[C@@H](OC(=O)CCC)[C@@H]1OC(=O)CCC [L-2]
A2780 SRB Max. (maximal inhibition) [1]: 21.2%

CCCCC(=O)OCC1OC(n2cc(-c3ccccn3)nn2)C(OC(=O)CCCC)C(OC(=O)CCCC)C1OC(=O)CCCC.Cc1ccc(C(C)C)cc1.F[P-](F)(F)(F)(F)F.[Cl][Os+] (mixture of isomers) [Os-3]
A2780 MTT Max. (maximal inhibition) [2]: 84.4%
MIC, Reference E. faecalis [3]: 2.5—10 µM and 5 µM
VRE isolates susceptible out of those tested [4]: 3/3
MIC, VRE 25 051 [4]: 5 µM
MIC, VRE 25 498 [4]: 5 µM
MIC, VRE 27 085 [4]: 5 µM
LogD [5]: 2.6
A2780 SRB Max. (maximal inhibition) [1]: >90%
pIC50 [1]: 5.68
MRSA isolates susceptible out of those tested [6]: 6/6
MIC, MRSA 20 426 [6]: 5 µM
MIC, MRSA 24 035 [6]: 2.5 µM
MIC, MRSA 24 268 [6]: 2.5 µM
MIC, MRSA 24 272 [6]: 5 µM
MIC, MRSA 24 328 [6]: 2.5 µM
MIC, MRSA 24 408 [6]: 5 µM
MIC, Reference S. aureus [7]: 2.5—10 µM and 2.5 µM

CCCCC(=O)OC[C@H]1O[C@@H](n2cc(-c3ccccn3)nn2)[C@H](OC(=O)CCCC)[C@@H](OC(=O)CCCC)[C@@H]1OC(=O)CCCC [L-3]
A2780 SRB Max. (maximal inhibition) [1]: 32.0%

CCCCCCC(=O)OCC1OC(n2cc(-c3ccccn3)nn2)C(OC(=O)CCCCCC)C(OC(=O)CCCCCC)C1OC(=O)CCCCCC.Cc1ccc(C(C)C)cc1.F[P-](F)(F)(F)(F)F.[Cl][Os+] (mixture of isomers) [Os-5]
A2780 MTT Max. (maximal inhibition) [2]: 83.4%
MIC, Reference E. faecalis [3]: 40< µM
MIC (μM) (E. faecalis), Figure 11 ([3]; reference strain ATCC29212, printed in the picture): ND (ND—not detected, MIC>40 µM)
MIC against clinical VRE isolates (as a group) ([4]; 3 clinical VRE isolates): > 40 µM
VRE isolates susceptible out of those tested [4]: 0/3
MIC, VRE 25 051 [4]: 40< µM
MIC, VRE 25 498 [4]: 40< µM
MIC, VRE 27 085 [4]: 40< µM
LogD [5]: 2.7
A2780 SRB Max. (maximal inhibition) [1]: >90%
pIC50 [1]: 4.80
MIC against clinical MRSA isolates (as a group) ([6]; 6 clinical MRSA isolates): > 40 µM
MRSA isolates susceptible out of those tested [6]: 0/6
MIC, MRSA 20 426 [6]: 40< µM
MIC, MRSA 24 035 [6]: 40< µM
MIC, MRSA 24 268 [6]: 40< µM
MIC, MRSA 24 272 [6]: 40< µM
MIC, MRSA 24 328 [6]: 40< µM
MIC, MRSA 24 408 [6]: 40< µM
MIC, Reference S. aureus [7]: 40< µM
MIC (μM) (S. aureus), Figure 11 ([7]; reference strain ATCC29213): ND (ND—not detected, MIC>40 µM)

CCCC(=O)OCC1OC(n2cc(-c3ccccn3)nn2)C(OC(=O)CCC)C(OC(=O)CCC)C1OC(=O)CCC.Cc1ccc(C(C)C)cc1.F[P-](F)(F)(F)(F)F.[Cl][Os+] (mixture of isomers) [Os-2]
A2780 MTT Max. (maximal inhibition) [2]: 88%
VRE isolates susceptible out of those tested [4]: 3/3
MIC, VRE 25 051 [4]: 10 µM
MIC, VRE 25 498 [4]: 10 µM
MIC, VRE 27 085 [4]: 10 µM
LogD [5]: 2.5
A2780 SRB Max. (maximal inhibition) [1]: >90%
pIC50 [1]: 5.21
MRSA isolates susceptible out of those tested [6]: 6/6
MIC, MRSA 20 426 [6]: 2.5 µM
MIC, MRSA 24 035 [6]: 2.5 µM
MIC, MRSA 24 268 [6]: 5 µM
MIC, MRSA 24 272 [6]: 5 µM
MIC, MRSA 24 328 [6]: 2.5 µM
MIC, MRSA 24 408 [6]: 5 µM
MIC, Reference S. aureus [7]: 2.5—10 µM and 2.5 µM

CCCCCCC(=O)OC[C@H]1O[C@@H](n2cc(-c3ccccn3)nn2)[C@H](OC(=O)CCCCCC)[C@@H](OC(=O)CCCCCC)[C@@H]1OC(=O)CCCCCC [L-5]
A2780 SRB Max. (maximal inhibition) [1]: 28.5%

O=C(OC[C@H]1O[C@@H](n2cc(-c3ccc4ccccc4n3)nn2)[C@H](OC(=O)c2ccccc2)[C@@H](OC(=O)c2ccccc2)[C@@H]1OC(=O)c1ccccc1)c1ccccc1 [L-7, 1-(2’,3’,4’,6’-tetra-O-benzoyl-β-D-glucopyranosyl)-4-(quinolin-2-yl)-1,2,3,-triazole]
A2780 SRB Max. (maximal inhibition) [1]: 16.9%

CCCCCC(=O)OC[C@H]1O[C@@H](n2cc(-c3ccccn3)nn2)[C@H](OC(=O)CCCCC)[C@@H](OC(=O)CCCCC)[C@@H]1OC(=O)CCCCC [L-4]
A2780 SRB Max. (maximal inhibition) [1]: 26.9%
